IC50 data for 24 molecules are collected here from US20250145585A1, “HETEROCYCLIC INHIBITORS OF IGF-1R FOR TREATMENT OF DISEASE” (HORIZON THERAPEUTICS IRELAND DAC, priority 2023, published 2025).

The target in the test is T1, IGF-1R (Homo sapiens, UniProt P08069).
T1 construct: expressed in transfected cells
As to the kind of experiment: Example B-2: IGF-1R Assay (PathHunter cell lines, EC80 agonist challenge, chemiluminescent detection). Type of test: cell-based. The following applies: PathHunter cells, compound 60 minutes at 37° C., EC80 agonist 3 hours; read-out: IC50, Biological Activity against IGF-1R (Table B2). As to the method: PathHunter cell lines were expanded from freezer stocks according to standard procedures. Cells were seeded in a total volume of 20 μL into white walled, 384-well microplates and incubated for the appropriate time prior to testing.
Cells are pre-incubated with compound followed by EC80 agonist challenge as follows: • R. 1. Intermediate dilution of sample stocks was performed to generate 5× sample in assay buffer. • 2. 5 μL of 5× sample was added to cells and incubated at 37° C. for 60 minutes. Vehicle concentration was 1%. • 3. 5 IL of 6× EC80 agonist in assay buffer was added to the cells and incubated at room temperature for 3 hours.
Assay signal was generated through a single addition of 12.5 or 15 μL (50% v/v) of PathHunter Detection reagent cocktail for agonist and antagonist assays respectively, followed by a one hour incubation at room temperature. Microplates were read following signal generation with a PerkinElmer Envision™ instrument for chemilumine-scent signal detection.
Compound activity was analyzed using CBIS data analysis suite (ChemInnovation, CA). Percentage inhibition was calculated using the following formula: % Inhibition=100%×(1−(mean RLU of test sample−mean RLU of vehicle control)/(mean RLU of EC80 control−mean RLU of vehicle control)). The activity for representative examples of the invention is shown in the following table, wherein A: IC50≤500 nM; B: 500 nM<IC50≤2 μM; C: 2 μM<IC50≤10 μM; D: IC50>10 μM.

T1 sequence (P08069 31-1367): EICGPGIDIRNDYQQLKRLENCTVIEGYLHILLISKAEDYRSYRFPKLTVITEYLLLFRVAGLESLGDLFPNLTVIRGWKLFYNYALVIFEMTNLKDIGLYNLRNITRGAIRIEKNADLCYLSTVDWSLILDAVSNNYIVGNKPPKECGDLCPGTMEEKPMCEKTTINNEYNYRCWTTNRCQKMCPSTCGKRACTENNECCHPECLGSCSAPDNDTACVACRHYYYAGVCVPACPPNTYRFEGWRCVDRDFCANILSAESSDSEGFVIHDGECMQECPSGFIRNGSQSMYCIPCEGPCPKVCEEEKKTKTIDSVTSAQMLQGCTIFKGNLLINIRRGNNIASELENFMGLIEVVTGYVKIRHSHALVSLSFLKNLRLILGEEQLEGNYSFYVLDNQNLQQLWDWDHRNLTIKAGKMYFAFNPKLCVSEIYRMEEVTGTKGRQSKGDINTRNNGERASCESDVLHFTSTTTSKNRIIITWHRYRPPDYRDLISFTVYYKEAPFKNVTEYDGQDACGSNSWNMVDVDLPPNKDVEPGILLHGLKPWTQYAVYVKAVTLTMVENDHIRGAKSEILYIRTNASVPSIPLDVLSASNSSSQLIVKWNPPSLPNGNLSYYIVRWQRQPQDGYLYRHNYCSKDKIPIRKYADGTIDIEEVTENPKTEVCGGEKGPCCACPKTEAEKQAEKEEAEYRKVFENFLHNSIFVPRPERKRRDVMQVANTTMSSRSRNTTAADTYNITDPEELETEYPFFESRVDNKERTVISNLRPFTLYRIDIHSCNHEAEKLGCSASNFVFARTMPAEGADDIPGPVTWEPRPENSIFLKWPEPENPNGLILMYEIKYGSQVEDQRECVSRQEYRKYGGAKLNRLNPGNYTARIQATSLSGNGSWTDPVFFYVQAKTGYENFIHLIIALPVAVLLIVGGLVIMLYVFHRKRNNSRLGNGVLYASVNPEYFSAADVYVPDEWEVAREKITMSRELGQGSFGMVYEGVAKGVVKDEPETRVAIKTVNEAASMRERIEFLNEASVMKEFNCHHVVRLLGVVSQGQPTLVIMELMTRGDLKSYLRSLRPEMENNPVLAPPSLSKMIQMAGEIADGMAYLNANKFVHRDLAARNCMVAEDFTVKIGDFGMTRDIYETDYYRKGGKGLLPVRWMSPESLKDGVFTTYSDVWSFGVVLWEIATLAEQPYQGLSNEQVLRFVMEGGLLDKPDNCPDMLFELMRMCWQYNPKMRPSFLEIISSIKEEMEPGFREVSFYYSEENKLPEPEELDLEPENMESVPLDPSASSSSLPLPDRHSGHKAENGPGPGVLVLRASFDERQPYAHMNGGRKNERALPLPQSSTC

One may read the IC50 as the concentration at which inhibition is half-maximal. Regarding `CC(C)Cc1cn(S(C)(=O)=O)c2cc(N3C(=O)N(Cc4ccnc5c4CC(=O)N5)C(C)(C)C3=O)ccc12` [Compound 50, 3-(3-isobutyl-1-(methylsulfonyl)-1H-indol-6-yl)-5,5-dimethyl-1-((2-oxo-2,3-dihydro-1H-pyrrolo[2,3-b]pyridin-4-yl)methyl)imidazolidine-2,4-dione], the IC50 is no more than 500 nM. For `CC1(C)C(=O)N(c2ccc3c(c2)OCC32CCC2)C(=O)N1Cc1ccnc2c1CC(=O)N2` [Compound 51, 5,5-dimethyl-1-((2-oxo-2,3-dihydro-1H-pyrrolo[2,3-b]pyridin-4-yl)methyl)-3-(2H-spiro[benzofuran-3,1′-cyclobutan]-6-yl)imidazolidine-2,4-dione], the concentration for half-maximal inhibition (IC50) is no more than 500 nM. With `CC1(C)C(=O)N(c2cc3c(cc2Br)C2(CCC2)CO3)C(=O)N1Cc1ccnc2c1CC(=O)N2` [Compound 52, 3-(5-bromo-2H-spiro[benzofuran-3,1′-cyclobutan]-6-yl)-5,5-dimethyl-1-((2-oxo-2,3-dihydro-1H-pyrrolo[2,3-b]pyridin-4-yl)methyl)imidazolidine-2,4-dione], the IC50 was no more than 500 nM.

With `CC1(C)COc2cc(N3C(=O)N(Cc4ccnc5c4CC(=O)N5)C(C)(C)C3=O)c(Br)cc21` [Compound 53, 3-(5-bromo-3,3-dimethyl-2,3-dihydrobenzofuran-6-yl)-5,5-dimethyl-1-((2-oxo-2,3-dihydro-1H-pyrrolo[2,3-b]pyridin-4-yl)methyl)imidazolidine-2,4-dione], the 50% inhibitory concentration (IC50) is 500 to 2000 nM. Regarding `CN(C)CC(=O)Nc1cc(N2C(=O)N(Cc3ccnc4c3CC(=O)N4)C(C)(C)C2=O)ccc1OC(F)(F)F` [Compound 54, N-(5-(4,4-dimethyl-2,5-dioxo-3-((2-oxo-2,3-dihydro-1H-pyrrolo[2,3-b]pyridin-4-yl)methyl)imidazolidin-1-yl)-2-(trifluoromethoxy)phenyl)-2-(dimethylamino)acetamide], the half-inhibitory concentration (IC50) is no more than 500 nM. As for `CC1CCc2c(CN3C(=O)N(c4ccc(C5(C(F)(F)F)CC5)cc4)C(=O)C3(C)C)ccnc2N1` (stereo not drawn) [Compound 55, 5,5-dimethyl-1-((7-methyl-5,6,7,8-tetrahydro-1,8-naphthyridin-4-yl)methyl)-3-(4-(1-(trifluoromethyl)cyclopropyl)phenyl) imidazolidine-2,4-dione], the figure is no more than 500 nM; as for `CC1(C)C(=O)N(c2ccc(C3(C(F)(F)F)CC3)cc2)C(=O)N1Cc1ccnc2c1OC[C@@H](CC#N)N2` [Compound 56, (R)-2-(8-((5,5-dimethyl-2,4-dioxo-3-(4-(1-(trifluoromethyl)cyclopropyl)phenyl)imidazolidin-1-yl)methyl)-3,4-dihydro-2H-pyrido[3,2-b][1,4]oxazin-3-yl) acetonitrile], no more than 500 nM. As for `CC1(C)C(=O)N(c2ccc(C(C)(C)C(F)(F)F)cc2)C(=O)N1Cc1ccnc2c1CC(=O)N2` [Compound 57, 5,5-dimethyl-1-((2-oxo-2,3-dihydro-1H-pyrrolo[2,3-b]pyridin-4-yl)methyl)-3-(4-(1,1,1-trifluoro-2-methylpropan-2-yl)phenyl)imidazolidine-2,4-dione], the figure is no more than 500 nM; as for `CC1(C)C(=O)N(c2ccc(C3(C(F)(F)F)CC3)cc2)C(=O)N1Cc1ccnc2c1OCC1(CC1)N2` [Compound 58, 1-((2′H,4′H-spiro[cyclopropane-1,3′-pyrido[3,2-b][1,4]oxazin]-8′-yl)methyl)-5,5-dimethyl-3-(4-(1-(trifluoromethyl)cyclopropyl)phenyl) imidazolidine-2,4-dione], no more than 500 nM. Consider `CC1(C)C(=O)N(c2ccc(C3(C(F)(F)F)CCC3)cc2F)C(=O)N1Cc1ccnc2c1CC(=O)N2` [Compound 59, 3-(2-fluoro-4-(1-(trifluoromethyl)cyclobutyl)phenyl)-5,5-dimethyl-1-((2-oxo-2,3-dihydro-1H-pyrrolo[2,3-b]pyridin-4-yl)methyl)imidazolidine-2,4-dione], for which the 50% inhibitory concentration (IC50) was no more than 500 nM. On to `C[C@@H]1COc2c(CN3C(=O)N(c4ccc(S(=O)(=O)C(F)(F)F)cc4)C(=O)C3(C)C)ccnc2N1` [Compound 60, (R)-5,5-dimethyl-1-((3-methyl-3,4-dihydro-2H-pyrido[3,2-b][1,4]oxazin-8-yl)methyl)-3-(4-((trifluoromethyl)sulfonyl)phenyl) imidazolidine-2,4-dione], for which the concentration for half-maximal inhibition (IC50) was no more than 500 nM. As for `CC1(C)C(=O)N(c2ccc(C3(C#N)CC3(C)C)cc2)C(=O)N1Cc1ccnc2c1CC(=O)N2` (stereo not drawn) [Compound 61, 1-(4-(4,4-dimethyl-2,5-dioxo-3-((2-oxo-2,3-dihydro-1H-pyrrolo[2,3-b]pyridin-4-yl)methyl)imidazolidin-1-yl)phenyl)-2,2-dimethylcyclopropane-1-carbonitrile], the figure is no more than 500 nM; as for `CC1(C)C(=O)N(c2ccc(S(C)(=O)=O)cc2)C(=O)N1Cc1ccnc2c1CC(=O)N2` [Compound 62, 5,5-dimethyl-3-(4-(methylsulfonyl)phenyl)-1-((2-oxo-2,3-dihydro-1H-pyrrolo[2,3-b]pyridin-4-yl)methyl)imidazolidine-2,4-dione], greater than 10000 nM.

As to `CC1(C)C(=O)N(c2ccc(S(=O)(=O)C(F)F)cc2)C(=O)N1Cc1ccnc2c1CC(=O)N2` [Compound 63, 3-(4-((difluoromethyl)sulfonyl)phenyl)-5,5-dimethyl-1-((2-oxo-2,3-dihydro-1H-pyrrolo[2,3-b]pyridin-4-yl)methyl)imidazolidine-2,4-dione], the IC50 is 500 to 2000 nM. With `CC1(C)C(=O)N(c2ccc(C3(C#N)CC3)cc2)C(=O)N1Cc1ccnc2c1CC(=O)N2` [Compound 64, 1-(4-(4,4-dimethyl-2,5-dioxo-3-((2-oxo-2,3-dihydro-1H-pyrrolo[2,3-b]pyridin-4-yl)methyl)imidazolidin-1-yl)phenyl)cyclopropane-1-carbonitrile], the IC50 lay within 500 to 2000 nM. In the case of `CN1C(=O)Cc2c(CN3C(=O)N(c4ccc(C5(C#N)CCC5)cc4)C(=O)C3(C)C)ccnc21` [Compound 65, 1-(4-(4,4-dimethyl-3-((1-methyl-2-oxo-2,3-dihydro-1H-pyrrolo[2,3-b]pyridin-4-yl)methyl)-2,5-dioxoimidazolidin-1-yl)phenyl)cyclobutane-1-carbonitrile], the IC50 was greater than 10000 nM. On to `CC1(C)C(=O)N(c2ccc(C(F)(F)F)c(C#N)c2)C(=O)N1Cc1ccnc2c1CC(=O)N2` [Compound 66, 5-(4,4-dimethyl-2,5-dioxo-3-((2-oxo-2,3-dihydro-1H-pyrrolo[2,3-b]pyridin-4-yl)methyl)imidazolidin-1-yl)-2-(trifluoromethyl)benzonitrile], for which the IC50 is greater than 10000 nM. Take `CC1(C)C(=O)N(c2ccc3c(c2)N(S(C)(=O)=O)CC3)C(=O)N1Cc1ccnc2c1CC(=O)N2` [Compound 67, 5,5-dimethyl-3-(1-(methylsulfonyl)indolin-6-yl)-1-((2-oxo-2,3-dihydro-1H-pyrrolo [2,3-b]pyridin-4-yl)methyl)imidazolidine-2,4-dione]: the IC50 is greater than 10000 nM. As to `CC(C)c1ccc(N2C(=O)N(Cc3ccnc4c3CC(=O)N4)C(C)(C)C2=O)cc1C#N` [Compound 68, 5-(4,4-dimethyl-2,5-dioxo-3-((2-oxo-2,3-dihydro-1H-pyrrolo[2,3-b]pyridin-4-yl)methyl)imidazolidin-1-yl)-2-isopropylbenzonitrile], the 50% inhibitory concentration (IC50) lay within 500 to 2000 nM. With `CC1(C)C(=O)N(c2ccc(C3(C#N)CC34CC4)cc2)C(=O)N1Cc1ccnc2c1CC(=O)N2` (stereo not drawn) [Compound 69, 1-(4-(4,4-dimethyl-2,5-dioxo-3-((2-oxo-2,3-dihydro-1H-pyrrolo[2,3-b]pyridin-4-yl)methyl)imidazolidin-1-yl)phenyl)spiro[2.2]pentane-1-carbonitrile] the figure was no more than 500 nM. As to `CC1(C)C(=O)N(c2ccc3c(c2)OC(F)(F)C32CC2)C(=O)N1Cc1ccnc2c1CC(=O)N2` [Compound 70, 3-(2,2-difluoro-2H-spiro[benzofuran-3,1′-cyclopropan]-6-yl)-5,5-dimethyl-1-((2-oxo-2,3-dihydro-1H-pyrrolo[2,3-b]pyridin-4-yl)methyl)imidazolidine-2,4-dione], the IC50 was in the range of 2000 to 10000 nM.

For the molecule `CC1(C)C(=O)N(c2ccc(C3(C#N)CC3)c(F)c2)C(=O)N1Cc1ccnc2c1CC(=O)N2` [Compound 71, 1-(4-(4,4-dimethyl-2,5-dioxo-3-((2-oxo-2,3-dihydro-1H-pyrrolo[2,3-b]pyridin-4-yl)methyl)imidazolidin-1-yl)-2-fluorophenyl)cyclopropane-1-carbonitrile], the IC50 is 500 to 2000 nM.

Take `COC[C@@H]1COc2c(CN3C(=O)N(c4ccc(C5(C(F)(F)F)CC5)cc4)C(=O)C3(C)C)ccnc2N1` [Compound 72, (R)-1-((3-(methoxymethyl)-3,4-dihydro-2H-pyrido[3,2-b][1,4]oxazin-8-yl)methyl)-5,5-dimethyl-3-(4-(1-(trifluoromethyl)cyclopropyl)phenyl) imidazolidine-2,4-dione]: the IC50 is no more than 500 nM. With `CC1(C)C(=O)N(c2ccc(OC(F)(F)F)c(N3CCOCC3)c2)C(=O)N1Cc1ccnc2c1CC(=O)N2` [Compound 74, 5,5-dimethyl-3-(3-morpholino-4-(trifluoromethoxy)phenyl)-1-((2-oxo-2,3-dihydro-1H-pyrrolo[2,3-b]pyridin-4-yl)methyl)imidazolidine-2,4-dione] the figure was no more than 500 nM.
